Data: US20070128217A1 (priority 2003, published 2007)

Legend:
[1] = system: rabbit serum obtained by immunizing a rabbit with the SARS-CoV strain Frankfurt 1; type: binding; set-up: Binding of a rabbit serum to linear peptides / Binding of a rabbit serum to looped peptides / Rabbit serum linear peptides / Rabbit serum looped peptides / Binding of a rabbit serum to linear peptides of protein N of SARS-CoV Urbani (Rabbit serum linear peptides) / Binding of a rabbit serum to looped/cyclic peptides of protein N of SARS-CoV Urbani (Rabbit serum looped peptides): unit not given here
[2] = system: control sera (pooled serum of ten healthy LUMC hospital workers; commercial negative donor pooled serum from the Dutch bloodbank); type: binding, human; set-up: Binding of Control serum LUMC to linear peptides / Binding of Control serum Blood-bank to linear peptides / Binding of Control serum LUMC to looped peptides / Binding of Control Serum Blood-Bank to Looped peptides / Binding of Control serum LUMC to linear peptides of the protein M of SARS-CoV Urbani / Binding of Control serum Blood-bank to linear peptides of the protein M of SARS-CoV Urbani / Binding of Control serum LUMC to looped peptides of the protein M of SARS-CoV Urbani / Binding of Control Serum Blood-Bank to Looped peptides of the protein M of SARS-CoV Urbani: unit not given here

Row | Sequence | Binding of a rabbit serum to linear peptides [1] | Binding of a rabbit serum to looped peptides [1] | Binding of Control Serum Blood-Bank to Looped peptides [2] | Binding of Control serum Blood-bank to linear peptides [2] | Binding of Control serum LUMC to linear peptides [2] | Binding of Control serum LUMC to looped peptides [2] | Rabbit serum linear peptides [1] | Rabbit serum looped peptides [1] | other results
1 | LRIGTQVLKTMSLYM | 0.4 | 0.4 | 0.7 | 0.6 | 0.4 | 0.7 | – | – | –
2 | EGHQTAAFRDVLVVL | – | – | 0.9 | 0.7 | 0.9 | 1.6 | 0.3 | 0.6 | –
3 | KLGASQRVGTDSGFA | – | – | – | – | – | – | 0.1 | 0.1 | Binding of Control Serum Blood-Bank to Looped peptides of the protein M of SARS-CoV Urbani [2]: 0.8; Binding of Control serum Blood-bank to linear peptides of the protein M of SARS-CoV Urbani [2]: 0.9; Binding of Control serum LUMC to linear peptides of the protein M of SARS-CoV Urbani [2]: 0.9; Binding of Control serum LUMC to looped peptides of the protein M of SARS-CoV Urbani [2]: 0.9
4 | LGSITAQPVKIDNAS | 0.3 | 0.4 | 0.4 | 0.4 | 0.5 | 0.4 | – | – | –
5 | KKNYSELDDEEPMEL | – | – | – | – | – | – | 0.1 | 0.0 | Binding of Control Serum Blood-Bank to Looped peptides of the protein X3 of SARS-CoV Urbani [2]: 0.6; Binding of Control serum Blood-bank to linear peptides of the protein X3 of SARS-CoV Urbani [2]: 0.5; Binding of Control serum LUMC to linear peptides of the protein X3 of SARS-CoV Urbani [2]: 0.4; Binding of Control serum LUMC to looped peptides of the protein X3 of SARS-CoV Urbani [2]: 0.9
6 | NCQDPAGGALIARCW | – | – | 0.8 | 0.6 | 0.3 | 0.6 | 0.5 | 0.5 | –
7 | GTQVLKTMSLYMAIS | 0.2 | 0.4 | 0.7 | 0.6 | 0.6 | 0.6 | – | – | –
8 | RTFRIAIWNLDVIIS | – | – | – | – | – | – | 0.3 | 0.4 | Binding of Control Serum Blood-Bank to Looped peptides of the protein X3 of SARS-CoV Urbani [2]: 0.9; Binding of Control serum Blood-bank to linear peptides of the protein X3 of SARS-CoV Urbani [2]: 0.7; Binding of Control serum LUMC to linear peptides of the protein X3 of SARS-CoV Urbani [2]: 0.6; Binding of Control serum LUMC to looped peptides of the protein X3 of SARS-CoV Urbani [2]: 0.8
9 | AMDPIYDEPTTTTSV | 0.1 | 0.4 | 0.7 | 0.8 | 0.6 | 0.7 | – | – | –
10 | ITAQPVKIDNASPAS | 0.1 | 0.3 | 0.5 | 0.7 | 0.7 | 0.5 | – | – | –
11 | VLKTMSLYMAISPKF | 0.3 | 0.5 | 0.7 | 0.9 | 0.5 | 0.6 | – | – | –
12 | DGISTPKLKEDYQIG | 0.1 | 0.4 | 0.3 | 0.5 | 0.6 | 0.3 | – | – | –
13 | QPVKIDNASPASTVH | 0.1 | 0.4 | 0.6 | 0.6 | 0.6 | 0.6 | – | – | –
14 | HNYDYCIPYNSVTDT | 0.1 | 0.5 | 0.7 | 0.3 | 0.4 | 0.6 | – | – | –
15 | GASQRVGTDSGFAAY | – | – | – | – | – | – | 0.1 | 0.1 | Binding of Control Serum Blood-Bank to Looped peptides of the protein M of SARS-CoV Urbani [2]: 0.7; Binding of Control serum Blood-bank to linear peptides of the protein M of SARS-CoV Urbani [2]: 0.9; Binding of Control serum LUMC to linear peptides of the protein M of SARS-CoV Urbani [2]: 0.9; Binding of Control serum LUMC to looped peptides of the protein M of SARS-CoV Urbani [2]: 0.7
16 | LFKPLTKKNYSELDD | – | – | – | – | – | – | 0.3 | 0.4 | Binding of Control Serum Blood-Bank to Looped peptides of the protein X3 of SARS-CoV Urbani [2]: 0.8; Binding of Control serum Blood-bank to linear peptides of the protein X3 of SARS-CoV Urbani [2]: 0.7; Binding of Control serum LUMC to linear peptides of the protein X3 of SARS-CoV Urbani [2]: 0.6; Binding of Control serum LUMC to looped peptides of the protein X3 of SARS-CoV Urbani [2]: 0.9

Row | Sequence | Binding of a rabbit serum to linear peptides [1] | Binding of a rabbit serum to looped peptides [1] | Binding of Control Serum Blood-Bank to Looped peptides [2] | Binding of Control serum Blood-bank to linear peptides [2] | Binding of Control serum LUMC to linear peptides [2] | Binding of Control serum LUMC to looped peptides [2] | Rabbit serum linear peptides [1] | Rabbit serum looped peptides [1] | other results
17 | GSSGVANPAMDPIYD | 0.1 | 0.5 | 0.4 | 0.6 | 0.7 | 0.4 | – | – | –
18 | MAGHPLGRCDIKDLP | – | – | – | – | – | – | 0.4 | 0.3 | Binding of Control Serum Blood-Bank to Looped peptides of the protein M of SARS-CoV Urbani [2]: 0.5; Binding of Control serum Blood-bank to linear peptides of the protein M of SARS-CoV Urbani [2]: 0.7; Binding of Control serum LUMC to linear peptides of the protein M of SARS-CoV Urbani [2]: 0.5; Binding of Control serum LUMC to looped peptides of the protein M of SARS-CoV Urbani [2]: 0.5
19 | SGTYEGNSPFHPLAD | – | – | 0.8 | 0.8 | 0.8 | 0.8 | 0.6 | 0.6 | –
20 | HTMVQTCTPNVTINC | – | – | 0.8 | 0.9 | 0.7 | 0.6 | 0.4 | 0.2 | –
21 | HSGVKDYVVVHGYFT | 0.1 | 0.6 | 2.2 | 0.7 | 0.8 | 2.3 | – | – | –
22 | ADNGTITVEELKQLL | – | – | – | – | – | – | – | – | Recognition of the peptide by the rabbit serum [1]: recognized; Binding of Control Serum Blood-Bank to Looped peptides of the protein M of SARS-CoV Urbani [2]: 0.5; Binding of Control serum Blood-bank to linear peptides of the protein M of SARS-CoV Urbani [2]: 0.7; Binding of Control serum LUMC to linear peptides of the protein M of SARS-CoV Urbani [2]: 0.5; Binding of Control serum LUMC to looped peptides of the protein M of SARS-CoV Urbani [2]: 0.7
23 | LVKPTVYVYSRVKNL | 0.6 | 0.9 | 0.7 | 0.8 | 0.4 | 0.7 | – | – | –
24 | TMVQTCTPNVTINCQ | – | – | 0.9 | 0.7 | 0.7 | 0.7 | 0.5 | 0.4 | –
25 | KIDNASPASTVHATA | 0.2 | 0.3 | 0.6 | 0.6 | 0.7 | 0.7 | – | – | –
26 | HPLADNKFALTCTST | – | – | 0.8 | 0.7 | 0.6 | 0.9 | 0.5 | 0.1 | –
27 | QNSKKTTKLVVILRI | – | – | 0.7 | 0.5 | 0.8 | 0.7 | – | – | Recognition of the peptide by the rabbit serum [1]: recognized
28 | PKLKEDYQIGGYSED | 0.1 | 0.6 | 0.5 | 0.4 | 0.4 | 0.7 | – | – | –
29 | GIAIAMACIVGLMWL | – | – | – | – | – | – | 0.3 | 0.1 | Binding of Control Serum Blood-Bank to Looped peptides of the protein M of SARS-CoV Urbani [2]: 0.7; Binding of Control serum Blood-bank to linear peptides of the protein M of SARS-CoV Urbani [2]: 0.8; Binding of Control serum LUMC to linear peptides of the protein M of SARS-CoV Urbani [2]: 0.5; Binding of Control serum LUMC to looped peptides of the protein M of SARS-CoV Urbani [2]: 0.8
30 | LRMAGHPLGRCDIKD | – | – | – | – | – | – | 0.3 | 0.1 | Binding of Control Serum Blood-Bank to Looped peptides of the protein M of SARS-CoV Urbani [2]: 0.8; Binding of Control serum Blood-bank to linear peptides of the protein M of SARS-CoV Urbani [2]: 0.7; Binding of Control serum LUMC to linear peptides of the protein M of SARS-CoV Urbani [2]: 0.5; Binding of Control serum LUMC to looped peptides of the protein M of SARS-CoV Urbani [2]: 0.8
31 | QHQNSKKTTKLVVIL | – | – | 0.6 | 0.5 | 0.6 | 0.5 | – | – | Recognition of the peptide by the rabbit serum [1]: recognized
